Results: DBAASP
In brackets after ≈: the same amount, converted by molar mass.

What was measured:
Test in all cases: ≥ marks a high value that may be exact or a test limit, other limits are often not marked, values filed in µg/mL are converted to µM
[1] = test system: Bacillus subtilis
[2] = test system: Escherichia coli ATCC 25922
[3] = test system: Candida albicans ATCC 2002
[4] = test system: Staphylococcus aureus ATCC 25923
[5] = test system: Pseudomonas aeruginosa Ps4
[6] = test system: Staphylococcus aureus ATCC 2592
[7] = test system: Escherichia coli
[8] = test system: Listeria innocua
[9] = test system: Micrococcus luteus A270
[10] = test system: Salmonella enterica subsp. enterica serovar Enteritidis
[11] = test system: Enterococcus faecalis ATCC 29212
[12] = test system: Leuconostoc lactis
[13] = test system: Micrococcus luteus
[14] = test system: Staphylococcus aureus ATCC 29213
[15] = test system: Candida albicans
[16] = test system: Staphylococcus aureus

Structure (SMILES): CC[C@H](C)[C@H](NC(=O)[C@H](C)NC(=O)[C@H](CCCN=C(N)N)NC(=O)[C@H](Cc1ccc(O)cc1)NC(=O)[C@H](CC(C)C)NC(=O)[C@H](CC(N)=O)NC(=O)[C@H](Cc1ccc(O)cc1)NC(=O)CNC(=O)[C@H](C)NC(=O)[C@@H](NC(=O)[C@@H](NC(=O)[C@@H](NC(=O)[C@H](CCCN=C(N)N)NC(=O)[C@@H](NC(=O)[C@@H](NC(=O)[C@@H](NC(=O)[C@@H]1CCCN1C(=O)[C@@H](N)Cc1c[nH]c2ccccc12)C(C)C)C(C)C)[C@@H](C)CC)[C@@H](C)O)C(C)C)C(C)C)C(=O)N[C@@H](CCCCN)C(=O)N[C@@H](CCCCN)C(=O)N[C@@H](CCCCN)C(=O)O [WPVVIRTVVAGYNLYRAIKKK]
- MIC [1]: 15.2 µM (≈ 37.5 µg/mL)
- MIC [2]: 15.2 µM (≈ 37.5 µg/mL)
- MIC [3]: 0.947 µM (≈ 2.34 µg/mL)
- MIC [4]: 5.68 µM (≈ 14.1 µg/mL)

Structure (SMILES): CC[C@H](C)[C@H](NC(=O)[C@H](CCCN=C(N)N)NC(=O)[C@@H](NC(=O)[C@H](CCCN=C(N)N)NC(=O)[C@H](CCCN=C(N)N)NC(=O)[C@H](CCC(N)=O)NC(=O)[C@H](Cc1c[nH]c2ccccc12)NC(=O)[C@@H](N)Cc1ccccc1)[C@@H](C)CC)C(=O)N[C@@H](CCCN=C(N)N)C(=O)N[C@@H](CCCN=C(N)N)C(N)=O [FWQRRIRIRR]
- MIC [5]: ≥ 168 µM

Structure (SMILES): CC[C@H](C)[C@H](NC(=O)[C@@H](NC(=O)[C@@H]1CCCN1C(=O)[C@H](CC(C)C)NC(=O)[C@@H](N)Cc1ccccc1)[C@@H](C)CC)C(=O)N[C@@H](C)C(=O)N[C@@H](CCCCN)C(=O)N[C@@H](CC(C)C)C(=O)N[C@@H](CC(C)C)C(=O)NCC(=O)NCC(=O)N[C@@H](CC(C)C)C(=O)N[C@@H](CC(C)C)C(N)=O [FLPIIAKLLGGLL]
- MIC [6]: 3.66 µM (≈ 5 µg/mL)
- MIC [2]: 21.9 µM (≈ 30 µg/mL)
- MIC [3]: 18.3 µM (≈ 25 µg/mL)

Structure (SMILES): CC[C@H](C)[C@H](NC(=O)[C@H](CC(N)=O)NC(=O)[C@H](CCCN=C(N)N)NC(=O)[C@H](CCC(N)=O)NC(=O)[C@H](Cc1c[nH]c2ccccc12)NC(=O)[C@H](CCCN=C(N)N)NC(=O)[C@@H](N)CCCN=C(N)N)C(=O)N[C@@H](CCCN=C(N)N)C(=O)N[C@@H](CCCCN)C(=O)N[C@@H](Cc1ccc(O)cc1)C(=O)N[C@@H](CCCN=C(N)N)C(=O)N[C@@H](CCCN=C(N)N)C(N)=O [RRWQRNIRKYRR]
- MIC [5]: ≥ 140 µM

Structure (SMILES): CC[C@H](C)[C@H](NC(=O)[C@H](CC(N)=O)NC(=O)[C@H](CCCN=C(N)N)NC(=O)[C@H](CCC(N)=O)NC(=O)[C@H](Cc1c[nH]c2ccccc12)NC(=O)[C@@H](N)Cc1ccccc1)C(=O)N[C@@H](CCCN=C(N)N)C(=O)N[C@@H](CCCCN)C(=O)N[C@H](C(=O)N[C@@H](CCCCN)C(=O)N[C@@H](CCCCN)C(N)=O)C(C)C [FWQRNIRKVKK]
- MIC [5]: ≥ 166 µM

Structure (SMILES): CC[C@H](C)[C@H](NC(=O)[C@@H](N)Cc1ccccc1)C(=O)N[C@@H](Cc1c[nH]c2ccccc12)C(=O)N[C@@H](CCCN=C(N)N)C(=O)N[C@@H](Cc1c[nH]c2ccccc12)C(=O)N[C@@H](CCCN=C(N)N)C(=O)N[C@@H](Cc1c[nH]c2ccccc12)C(=O)N[C@@H](CCCN=C(N)N)C(N)=O [FIWRWRWR]
- MIC [5]: ≥ 47.9 µM

Structure (SMILES): CC[C@H](C)[C@H](NC(=O)[C@H](C)NC(=O)[C@H](CCCN=C(N)N)NC(=O)[C@H](Cc1ccc(O)cc1)NC(=O)[C@H](CC(C)C)NC(=O)[C@H](CC(N)=O)NC(=O)[C@H](Cc1ccc(O)cc1)NC(=O)CNC(=O)[C@H](C)NC(=O)[C@@H](NC(=O)[C@@H](NC(=O)[C@@H](NC(=O)[C@H](CCCN=C(N)N)NC(=O)[C@@H](NC(=O)[C@@H](NC(=O)[C@@H](NC(=O)[C@@H]1CCCN1C(=O)[C@H](Cc1c[nH]c2ccccc12)NC(=O)[C@H](Cc1ccccc1)NC(=O)[C@H](CCCN=C(N)N)NC(=O)[C@@H](N)CCCCN)C(C)C)C(C)C)[C@@H](C)CC)[C@@H](C)O)C(C)C)C(C)C)C(=O)N[C@@H](CCCCN)C(=O)N[C@@H](CCCCN)C(=O)N[C@@H](CCCCN)C(=O)O [KRFWPVVIRTVVAGYNLYRAIKKK]
- MIC [1]: 1.21 µM (≈ 3.52 µg/mL)
- MIC [2]: 6.45 µM (≈ 18.8 µg/mL)
- MIC [3]: 0.202 µM (≈ 0.586 µg/mL)
- MIC [4]: 1.21 µM (≈ 3.52 µg/mL)

Structure (SMILES): CC[C@H](C)[C@H](NC(=O)[C@H](CC(N)=O)NC(=O)[C@H](CCCN=C(N)N)NC(=O)[C@H](CCC(N)=O)NC(=O)[C@H](Cc1c[nH]c2ccccc12)NC(=O)[C@H](Cc1ccccc1)NC(=O)[C@@H](N)CCCN=C(N)N)C(=O)N[C@@H](CCCN=C(N)N)C(=O)N[C@@H](CCCCN)C(=O)N[C@H](C(=O)N[C@@H](CCCN=C(N)N)C(=O)N[C@@H](CCCN=C(N)N)C(N)=O)C(C)C [RFWQRNIRKVRR]
- MIC [5]: ≥ 146 µM

Structure (SMILES): CC[C@H](C)[C@H](NC(=O)[C@H](CC(N)=O)NC(=O)[C@H](CCCN=C(N)N)NC(=O)[C@H](CCC(N)=O)NC(=O)[C@H](Cc1c[nH]c2ccccc12)NC(=O)[C@H](C)NC(=O)[C@@H](N)Cc1ccccc1)C(=O)N[C@@H](CCCN=C(N)N)C(=O)N[C@@H](CCCCN)C(=O)N[C@H](C(=O)N[C@@H](CCCN=C(N)N)C(N)=O)C(C)C [FAWQRNIRKVR]
- MIC [5]: ≥ 170 µM

Structure (SMILES): CC(C)C[C@H](NC(=O)[C@@H](N)Cc1ccccc1)C(=O)N[C@@H](CO)C(=O)N[C@@H](Cc1ccccc1)C(=O)N1CCC[C@H]1C(=O)N[C@H](C(=O)N[C@H](C(=O)N[C@@H](CCCCN)C(=O)N[C@H](C(=O)N[C@@H](Cc1ccc(O)cc1)C(=O)N[C@@H](Cc1ccccc1)C(=O)N1CCC[C@H]1C(=O)N[C@@H](Cc1cnc[nH]1)C(=O)O)[C@@H](C)O)[C@@H](C)O)[C@@H](C)O [FLSFPTTKTYFPH]
- MIC [7]: 9 µM (≈ 14.3 µg/mL)
- MIC [8]: 1 µM (≈ 1.59 µg/mL)
- MIC [9]: 5 µM (≈ 7.93 µg/mL)
- MIC [10]: 5 µM (≈ 7.93 µg/mL)

Structure (SMILES): CC[C@H](C)[C@H](NC(=O)CNC(=O)[C@@H](NC(=O)[C@@H](NC(=O)[C@H](Cc1cnc[nH]1)NC(=O)[C@H](CCCCN)NC(=O)[C@H](C)NC(=O)[C@H](Cc1ccccc1)NC(=O)[C@H](CC(=O)O)NC(=O)[C@H](CC(C)C)NC(=O)[C@H](CC(C)C)NC(=O)CN)C(C)C)[C@@H](C)CC)C(=O)N[C@@H](C)C(=O)N[C@@H](CO)C(=O)N[C@@H](CCCCN)C(=O)N[C@@H](CC(C)C)C(N)=O [GLLDFAKHVIGIASKL]
- MIC [11]: 100 µM (≈ 168 µg/mL)
- MIC [12]: ≥ 50 µM

Structure (SMILES): CC(C)C[C@H](NC(=O)[C@H](C)NC(=O)[C@H](CC(N)=O)NC(=O)[C@H](C)NC(=O)[C@@H](NC(=O)CNC(=O)[C@H](C)NC(=O)[C@@H](NC(=O)[C@@H](NC(=O)[C@H](CCCCN)NC(=O)[C@H](CCC(N)=O)NC(=O)[C@H](Cc1ccccc1)NC(=O)[C@H](CC(=O)O)NC(=O)[C@H](C)NC(=O)[C@H](CCC(N)=O)NC(=O)[C@H](CC(C)C)NC(=O)[C@@H](NC(=O)[C@@H]1CCCN1C(=O)[C@@H](NC(=O)[C@H](Cc1ccccc1)NC(=O)[C@@H](N)Cc1ccccc1)[C@@H](C)O)C(C)C)C(C)C)C(C)C)C(C)C)C(=O)N[C@@H](C)C(=O)N[C@@H](Cc1cnc[nH]1)C(=O)N[C@@H](CCCN=C(N)N)C(=O)N[C@@H](Cc1ccc(O)cc1)C(=O)N[C@@H](Cc1cnc[nH]1)C(=O)O [FFTPVLQADFQKVVAGVANALAHRYH]
- MIC [7]: 73 µM (≈ 212 µg/mL)
- MIC [13]: ≥ 85 µM
- MIC [8]: ≥ 73 µM
- MIC [10]: ≥ 73 µM

Structure (SMILES): CC(C)C[C@@H]1NC(=O)CNC(=O)[C@H](CO)NC(=O)[C@H](CC(C)C)NC(=O)CNC(=O)[C@@H](NC(=O)[C@H](CC(C)C)NC(=O)[C@@H](NC(=O)[C@H](CCCCN)NC(=O)[C@H](CCCCN)NC(=O)CNC(=O)[C@@H](NC(=O)CNC(=O)[C@H](CC(C)C)NC(=O)[C@@H](NC(=O)CNC(=O)[C@H](CO)NC(=O)[C@H](CC(C)C)NC(=O)[C@H](CC(C)C)NC(=O)CN)C(C)C)C(C)C)C(C)C)CSSC[C@@H](C(=O)O)NC1=O [GLLSGVLGVGKKVLCGLSGLC]
- MIC [14]: 11.5 µM (≈ 22.6 µg/mL)
- MIC [7]: 2.37 µM (≈ 4.68 µg/mL)
- MIC [15]: 2.37 µM (≈ 4.68 µg/mL)
- MIC [16]: 4.75 µM (≈ 9.36 µg/mL)
- MIC [1]: 9.5 µM (≈ 18.7 µg/mL)
- MIC [2]: 5.73 µM (≈ 11.3 µg/mL)
- MIC [10]: ≥ 64.9 µM

Structure (SMILES): NC(=O)[C@H](CCCN=C(N)N)NC(=O)[C@H](CCCN=C(N)N)NC(=O)[C@H](Cc1c[nH]c2ccccc12)NC(=O)[C@H](CCCN=C(N)N)NC(=O)[C@H](CCCN=C(N)N)NC(=O)[C@H](Cc1c[nH]c2ccccc12)NC(=O)[C@@H](N)Cc1ccccc1 [FWRRWRR]
- MIC [5]: ≥ 108 µM
